Measured values from patent US11814364B2, “Pyridine N-oxide derivatives useful as factor XIa inhibitors” (Janssen Pharmaceutica NV, priority 2021, dated 2023).

Target: human plasma kallikrein (Homo sapiens, UniProt P03952)
Assay: Kallikrein inhibition FLINT assay with quenched AMC peptide substrate Z-Gly-Pro-Arg-AMC (end point EP or kinetic KIN reads)
Assay type: biochemical
Conditions: kinetic reads at 5 min intervals over 30 min; read-out: Kallikrein (KIN) IC50
How it was run: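 Enzyme and compound were preincubated 30 min before adding 50 μM AMC substrate in pH 7.5 Tris/NaCl/CaCl2/BSA/CHAPS buffer. AMC release was read at 30 min endpoint or every 5 min.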

Sequence of human plasma kallikrein (P03952 391-638 limits assumed): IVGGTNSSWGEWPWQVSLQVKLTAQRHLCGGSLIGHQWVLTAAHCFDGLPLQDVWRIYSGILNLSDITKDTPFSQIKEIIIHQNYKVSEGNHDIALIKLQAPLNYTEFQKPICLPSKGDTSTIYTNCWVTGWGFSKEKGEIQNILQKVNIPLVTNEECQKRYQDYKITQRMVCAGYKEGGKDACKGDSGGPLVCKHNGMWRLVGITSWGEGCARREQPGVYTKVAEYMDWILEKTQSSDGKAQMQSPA
Sequence of human plasma kallikrein (P03952 20-390 partner limits assumed): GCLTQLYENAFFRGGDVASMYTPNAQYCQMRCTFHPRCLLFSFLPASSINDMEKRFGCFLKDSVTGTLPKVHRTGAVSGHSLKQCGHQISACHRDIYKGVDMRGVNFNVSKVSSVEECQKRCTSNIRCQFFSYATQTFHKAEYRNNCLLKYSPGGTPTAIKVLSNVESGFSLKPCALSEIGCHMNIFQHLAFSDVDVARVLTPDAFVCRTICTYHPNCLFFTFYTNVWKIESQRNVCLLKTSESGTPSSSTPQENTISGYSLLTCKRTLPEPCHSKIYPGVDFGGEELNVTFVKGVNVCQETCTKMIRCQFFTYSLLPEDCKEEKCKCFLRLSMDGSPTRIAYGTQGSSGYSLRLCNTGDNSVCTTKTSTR

SMILES | IC50 [nM]
CCn1ncc(-c2cnn(C(CC3CC3)c3cc(OC)c(-c4c(-n5cnnn5)ccc(Cl)c4F)c[n+]3[O-])c2)cc1=O (stereo not drawn) [Example P170] | 46.8
[O-][n+]1cc(-c2c(-n3cnnn3)ccc(Cl)c2F)ccc1C(Cc1ccn(C(F)F)n1)n1cc(-c2ccnc(C(F)(F)F)c2)cn1 (stereo not drawn) [Example P703] | 9.7
CN(CC(c1ccc(-c2c(-n3cnnn3)ccc(Cl)c2F)c[n+]1[O-])n1cc(-c2cc[n+]([O-])cc2)cn1)C(=O)c1ccccc1 (stereo not drawn) [Example P344] | 175
CN(CC(c1ccc(-c2c(-n3cnnn3)ccc(Cl)c2F)c[n+]1[O-])n1cc(-c2ccncc2)cn1)C(=O)Cc1ccccc1 (stereo not drawn) [Example P299] | 24.9
[O-][n+]1cc(-c2c(-n3cnnn3)ccc(Cl)c2F)ccc1C(Cc1ccc(F)cc1)n1cc(-c2c(Cl)nnn2C(F)F)cn1 (stereo not drawn) [Example P605] | 10.7
[O-][n+]1cc(-c2c(-n3cnnn3)ccc(Cl)c2F)ccc1C(C(O)c1ccccc1)n1cc(-c2ccnn2C(F)F)cn1 (single isomer, unassigned) [Example P719] | 516
COC(=O)Nc1ccc(-c2cnn(C(CCOC(C)C)c3ccc(-c4c(-n5cnnn5)ccc(Cl)c4F)c[n+]3[O-])c2)cc1 (single isomer, unassigned) [Example P192] | 24
[O-][n+]1cc(-c2c(-n3cnnn3)ccc(Cl)c2F)ccc1[C@@H](CCOC(F)F)n1cc(-c2c(Cl)nnn2C(F)F)cn1 [Example P714] | 28.6
Nc1ccc(-c2cnn(C(Cn3cc(CC(=O)N4CCCCC4)cn3)c3ccc(-c4c(-n5cnnn5)ccc(Cl)c4F)c[n+]3[O-])c2)c(F)n1 (stereo not drawn) [Example P471] | 51.7
[O-][n+]1cc(-c2c(-n3cnnn3)ccc(Cl)c2F)ccc1C(CC1CC1)n1cc(-c2ccn[nH]2)cn1 (stereo not drawn) [Example P467] | 780
[O-][n+]1cc(-c2c(-n3cnnn3)ccc(Cl)c2F)ccc1C(Cn1cc(F)cn1)n1cc(-c2ccnc(C(F)(F)F)c2)cn1 (stereo not drawn) [Example P333] | 17.2
O=C(O)c1ccc(-c2cnn(C(Cc3ccccc3)c3ccc(-c4c(OCC(F)(F)F)ccc(Cl)c4F)c[n+]3[O-])c2)cc1 (stereo not drawn) [Example Q4] | 265
[O-][n+]1cc(-c2c(-n3cnnn3)ccc(Cl)c2F)ccc1C(Cn1cccn1)n1cc(-c2ccncc2)cn1 (stereo not drawn) [Example P269] | 6.1
CNc1ncc(-c2cnn([C@H](CCOC(F)F)c3ccc(-c4c(-n5cnnn5)ccc(Cl)c4F)c[n+]3[O-])c2)cn1 [Example P552] | 56
COC(=O)Nc1ccc(-c2cnn(C(CC(C)OC)c3ccc(-c4c(-n5cnnn5)ccc(Cl)c4F)c[n+]3[O-])c2)cc1 (single isomer, unassigned) [Example P228] | 1290
[O-][n+]1cc(-c2c(-n3cnnn3)ccc(Cl)c2F)ccc1[C@@H](Cc1ccc(F)cc1)n1cc(-c2ccn(C(F)F)n2)cn1 [Example P569] | 7.5
[O-][n+]1cc(-c2c(-n3cnnn3)ccc(Cl)c2F)ccc1C(CC1CC1)n1cc(-c2c[nH]nc2Cl)cn1 (stereo not drawn) [Example P938] | 6.9
O=C1CCCN1CC(c1ccc(-c2c(-n3cnnn3)ccc(Cl)c2F)c[n+]1[O-])n1cc(-c2cc[n+]([O-])cc2)cn1 (single isomer, unassigned) [Example P244] | 22.4
COc1cc(C(Cc2ccccc2)n2cc(-c3ccc(C(=O)O)cc3)cn2)[n+]([O-])cc1-c1c(OCC(F)(F)F)ccc(Cl)c1F (stereo not drawn) [Example Q6] | 10.4
Cn1nncc1-c1cnn([C@H](CCOC(F)F)c2ccc(-c3c(N)ccc(Cl)c3F)c[n+]2[O-])c1 [Example Q44] | 80.7
[O-][n+]1cc(F)c(-c2cnn(C(CC3CC3)c3ccc(-c4c(-n5cnnn5)ccc(Cl)c4F)c[n+]3[O-])c2)c(Cl)c1 (single isomer, unassigned) [Example P862] | 148

SMILES | IC50 [nM]
Cn1cncc1-c1cnn(C(CC2CC2)c2ccc(-c3c(-n4cnnn4)ccc(Cl)c3F)c[n+]2[O-])c1 (stereo not drawn) [Example P495] | 211
COc1cc(C(CC2CC2)n2cc(-c3ccc(N)nc3F)cn2)[n+]([O-])cc1-c1c(-n2cnnn2)ccc(Cl)c1F (stereo not drawn) [Example P85] | 4.1
[O-][n+]1cc(-c2cc(Cl)ccc2-n2cnnn2)ccc1C(Cc1ccc(Cl)cc1)n1cc(-c2ccc(F)nc2)cn1 (stereo not drawn) [Example P173] | 78.4
[O-][n+]1cc(-c2c(-n3cnnn3)ccc(Cl)c2F)ccc1[C@@H](Cc1ccc(C(F)F)cc1)n1cc(-c2cnnn2C(F)F)cn1 [Example P731] | 64.9
[O-][n+]1cc(-c2cc(Cl)ccc2-n2cnnn2)ccc1C(Cc1ccc(Cl)cc1)n1cc(-c2ccncc2F)cn1 (stereo not drawn) [Example P174] | 50.8
Cn1nncc1-c1cnn([C@H](Cc2ccc(C(F)(F)F)nc2)c2ccc(-c3c(-n4cc(Cl)nn4)ccc(Cl)c3F)c[n+]2[O-])c1 [Example P772] | 42.3
[O-][n+]1cc(-c2c(-n3cnnn3)ccc(Cl)c2F)ccc1C(Cn1cc(F)cn1)n1cc(-c2ccnc(F)c2)cn1 (stereo not drawn) [Example P352] | 13.4
Cn1ncc2cc(-c3cnn(C(CC4CC4)c4ccc(-c5c(-n6cnnn6)ccc(Cl)c5F)c[n+]4[O-])c3)ccc21 (stereo not drawn) [Example P265] | 88.1
[O-][n+]1cc(-c2c(-n3cnnn3)ccc(Cl)c2F)ccc1C(CC1CC1)n1cc(-c2ccnnc2)cn1 (stereo not drawn) [Example P397] | 397
[O-][n+]1cc(-c2c(C(F)F)ccc(Cl)c2F)ccc1C(Cn1cc(F)cn1)n1cc(-c2ccnc(C(F)(F)F)c2)cn1 (single isomer, unassigned) [Example Q23] | 80.4
NC(=O)c1ccc(-c2cnn(C(Cc3ccn(C(F)F)n3)c3ccc(-c4c(-n5cc(Cl)nn5)ccc(Cl)c4F)c[n+]3[O-])c2)cc1F (stereo not drawn) [Example P894] | 2.5
Cn1ncnc1-c1cnn([C@H](CCOC(F)F)c2ccc(-c3c(-n4cnnn4)ccc(Cl)c3F)c[n+]2[O-])c1 [Example P550] | 18
O=C(O)c1ccc(-c2cnn(C(CCc3ccccc3)c3ccc(-c4cc(Cl)ccc4-n4cnnn4)c[n+]3[O-])c2)cc1 (stereo not drawn) [Example P65] | 721
COC(=O)Nc1ccc(-c2cnn(C(Cc3ccc(Cl)cc3)c3ccc(-c4c(-n5cnnn5)ccc(Cl)c4F)c[n+]3[O-])c2)cc1 (single isomer, unassigned) [Example P160] | 7
[O-][n+]1cc(-c2c(-n3cnnn3)ccc(Cl)c2F)ccc1C(CC1CC1)n1cc(-c2ccnn2C(F)F)cn1 (stereo not drawn) [Example P542] | 302
NC(=O)c1ccc(-c2cnn(C(Cc3ccn(C(F)F)n3)c3ccc(-c4c(-n5cnnn5)ccc(Cl)c4F)c[n+]3[O-])c2)cc1F (single isomer, unassigned) [Example P933] | 0.4
[O-][n+]1cc(-c2c(-n3cc(Cl)nn3)ccc(Cl)c2F)ccc1[C@@H](CCOC(F)F)n1cc(-c2cnnn2C(F)F)cn1 [Example P668] | 39.2
COCC[C@H](c1ccc(-c2c(-n3cnnn3)ccc(Cl)c2F)c[n+]1[O-])n1cc(-c2ccn(C(F)F)n2)cn1 [Example P560] | 102
NC(=O)c1ccc(-c2cnn(C(CC3CC3)c3ccc(-c4c(-n5cnnn5)ccc(Cl)c4F)c[n+]3[O-])c2)cc1F (single isomer, unassigned) [Example P946] | 834
[O-][n+]1cc(-c2c(-n3cnnn3)ccc(Cl)c2F)ccc1[C@@H](CC1CC1)n1cc(-c2c(F)cnn2C(F)F)cn1 [Example P628] | 165
Cn1ncnc1-c1cnn([C@H](Cc2ccn(C(F)F)n2)c2ccc(-c3c(-n4cc(C(F)(F)F)nn4)ccc(Cl)c3F)c[n+]2[O-])c1 [Example P816] | 86.3
